Reference: patent US20030134859A1 (SANKYO COMPANY, LIMITED, priority 2000, published 2003)

Tests used:
[1] = tested on: Rat white adipocytes; assay: Stimulation of differentiation of the adipocytes (Oil Red O); format: cell-based; settings: 100 nM test compound, 5 days, Oil Red O ABS550, control = 100%, blank = 0%, Table 7; for activity at 0.1 µM: Rattus norvegicus, Adipocyte, 120 h, read-out: Rate of Differentiation (%)
Method in brief: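 Rat white adipocytes, 5,000 cells/well, cultured 5 days in differentiation-inducing medium with test compound at final 100 nM (0.1% DMSO). Cells fixed, stained with Oil Red O, dye extracted in DMSO and read at 550 nm; differentiation rate expressed relative to vehicle control (100%) and cell-free blank (0%).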

[2] = tested on: Mouse preadipocyte strain 3T3-L1; assay: Inhibition of differentiation as an indication of acetic acid uptake; format: cell-based; settings: control (0.01% dimethylsulfoxide) = 100%; for activity at 0.1 µM: Mus musculus, 3T3-L1, 0.1 μM test substance, read-out: Rate of Uptake (%) of [2-14C] acetic acid
Method in brief: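 Confluent 3T3-L1 cells induced to differentiate for 4 days (insulin, IBMX, dexamethasone, 5% FBS) with test compound at 0.1 μM final or 0.01% DMSO, then 2 days in insulin maintenance medium, at 37 °C, 10% CO2. [2-14C]acetic acid uptake over 1 hr counted by scintillation; expressed as % of DMSO control.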

| SMILES | activity at 0.1 µM [1] | activity at 0.1 µM [2] | other results |
| --- | --- | --- | --- |
| Cc1ccc(NC(=O)c2cc([N+](=O)[O-])ccc2Cl)cc1 [Example 1, N-(4-Methylphenyl)-(2-chloro-5-nitrophenyl)carboxamide] | 121% | 64% | – |
| O=C(Nc1ccc(-c2ccccc2)cc1)c1cc([N+](=O)[O-])ccc1Cl [Example 2, N-(4-Phenylphenyl)-(2-chloro-5-nitrophenyl)carboxamide] | 127% | 42.7% | – |
| Cc1cnc(NC(=O)c2cc([N+](=O)[O-])ccc2Cl)s1 [Example 4, N-(5-Methylthiazol-2-yl)-(2-chloro-5-nitrophenyl)carboxamide] | 128% | 92.5% | – |
| O=C(Nc1cccc(-c2ccccc2)c1)c1cc([N+](=O)[O-])ccc1Cl [Example 5, N-(3-Phenylphenyl)-(2-chloro-5-nitrophenyl)carboxamide] | – | 43.4% | – |
| COc1ccc(NC(=O)c2cc([N+](=O)[O-])ccc2Cl)cc1-c1ccccc1 [Example 6, N-(4-Methoxy-3-phenyl)phenyl-(2-chloro-5-nitrophenyl)carboxamide] | – | 55.8% | – |
| O=C(Nc1ccccc1-c1ccccc1)c1cc([N+](=O)[O-])ccc1Cl [Example 7, N-(2-Phenylphenyl)-(2-chloro-5-nitrophenyl)carboxamide] | 120% | 65% | – |
| O=C(Nc1ccc(-c2ccccn2)cc1)c1cc([N+](=O)[O-])ccc1Cl [Example 8, N-[4-(2-Pyridyl)phenyl]-(2-chloro-5-nitrophenyl)carboxamide] | 114% | – | Rate of Uptake (%) of [2-14C] acetic acid ([2]; 0.1 μM test substance): 47.2% |
| Cc1ccc2nc(-c3ccc(NC(=O)c4cc([N+](=O)[O-])ccc4Cl)cc3)sc2c1 [Example 10, N-[4-(6-Methylbenzothiazol-2-yl)phenyl]-(2-chloro-5-nitrophenyl)carboxamide] | – | 85.3% | – |
| CCCCCc1ccc(NC(=O)c2cc([N+](=O)[O-])ccc2Cl)cc1 [Example 16, N-(4-Pentylphenyl)-(2-chloro-5-nitrophenyl)carboxamide] | 136% | 83.7% | – |
| N#Cc1ccc(NC(=O)c2cc([N+](=O)[O-])ccc2Cl)cc1 [Example 20, N-(4-Cyanophenyl)-(2-chloro-5-nitrophenyl)carboxamide] | – | 65.9% | – |
| CCOC(=O)c1ccc(NC(=O)c2cc([N+](=O)[O-])ccc2Cl)cc1 [Example 26, N-(4-Ethoxycarbonylphenyl)-(2-chloro-5-nitrophenyl)carboxamide] | – | 87.5% | – |
| CC(C)(C)c1cc(NC(=O)c2cc([N+](=O)[O-])ccc2Cl)cc(C(C)(C)C)c1O [Example 29, N-(3,5-Di-t-butyl-4-hydroxyphenyl)-(2-chloro-5-nitrophenyl)carboxamide] | 111% | 68.6% | – |
| O=C(Nc1cccc(NS(=O)(=O)c2ccccc2)c1)c1cc([N+](=O)[O-])ccc1Cl [Example 30, N-(3-Benzensulfonylaminophenyl)-(2-chloro-5-nitrophenyl)carboxamide] | 139% | 60.1% | – |
| O=C(Nc1nc(-c2ccccc2)cs1)c1cc([N+](=O)[O-])ccc1Cl [Example 35, N-(4-Phenylthiazol-2-yl)-(2-chloro-5-nitrophenyl)carboxamide] | 122% | 71.5% | – |
| O=C(Nc1nc(-c2cccnc2)cs1)c1cc([N+](=O)[O-])ccc1Cl [Example 37, N-[4-(3-Pyridyl)thiazol-2-yl)-(2-chloro-5-nitrophenyl)carboxamide] | 114% | 38.6% | – |
| O=C(Nc1nc(-c2ccccn2)cs1)c1cc([N+](=O)[O-])ccc1Cl [Example 38, N-[4-(2-Pyridyl)thiazol-2-yl)-(2-chloro-5-nitrophenyl)carboxamide] | 137% | 82% | – |
| Cc1ccccc1-c1csc(NC(=O)c2cc([N+](=O)[O-])ccc2Cl)n1 [Example 39, N-[4-(2-Methylphenyl)thiazol-2-yl]-(2-chloro-5-nitrophenyl)carboxamide] | – | 62.5% | – |
| Cc1cccc(-c2csc(NC(=O)c3cc([N+](=O)[O-])ccc3Cl)n2)c1 [Example 40, N-[4-(3-Methylphenyl)thiazol-2-yl)-(2-chloro-5-nitrophenyl)carboxamide] | 122% | 45.3% | – |
| O=C(Nc1nc(-c2cccc3ccccc23)cs1)c1cc([N+](=O)[O-])ccc1Cl [Example 41, N-[4-(1-Naphthyl)thiazol-2-yl]-(2-chloro-5-nitrophenyl)carboxamide] | 118% | 53.8% | – |
| CCc1ccc(-c2csc(NC(=O)c3cc([N+](=O)[O-])ccc3Cl)n2)cc1 [Example 44, N-[4-(4-Ethylphenyl)thiazol-2-yl]-(2-chloro-5-nitrophenyl)carboxamide] | – | 67.6% | – |

| SMILES | activity at 0.1 µM [1] | activity at 0.1 µM [2] | other results |
| --- | --- | --- | --- |
| Cc1ccc(-c2nc(NC(=O)c3cc([N+](=O)[O-])ccc3Cl)sc2C)cc1Cl [Example 46, N-[4-(3-Chloro-4-methylphenyl)-5-methylthiazol-2-yl]-(2-chloro-5-nitrophenyl)carboxamide] | 124% | 67% | – |
| O=C(Nc1cccnc1)c1cc([N+](=O)[O-])ccc1Cl [Example 50, N-(3-Pyridyl)-(2-chloro-5-nitrophenyl)carboxamide] | – | 61.4% | – |
| O=C(Nc1cccc2cccnc12)c1cc([N+](=O)[O-])ccc1Cl [Example 57, N-(8-Quinolinyl)-(2-chloro-5-nitrophenyl)carboxamide] | – | 58.4% | – |
| Cc1cc(Cl)nc(NC(=O)c2cc([N+](=O)[O-])ccc2Cl)n1 [Example 78, N-(4-Chloro-6-methylpyrimidin-2-yl)-(2-chloro-5-nitrophenyl)carboxamide] | – | 68.2% | – |
| O=C(Nc1cccc2nsnc12)c1cc([N+](=O)[O-])ccc1Cl [Example 86, N-(2,1,3-Benzothiazol-4-yl)-(2-chloro-5-nitrophenyl)carboxamide] | – | 51.7% | – |
| CC(C)(C)OC(=O)Nc1ccc(-c2ccc(NC(=O)c3cc([N+](=O)[O-])ccc3Cl)cc2)cc1 [Example 87, N-[4-[4-(tert-Butoxycarbonylamino)phenyl]phenyl]-(2-chloro-5-nitrophenyl)carboxamide] | – | 57.1% | – |
| Cc1cc(NS(=O)(=O)c2ccc(NC(=O)c3cc([N+](=O)[O-])ccc3Cl)cc2)no1 [Example 99] | – | – | Rate of Differentiation (%) [1]: 119.0% |
| COc1cnc(NS(=O)(=O)c2ccc(NC(=O)c3cc([N+](=O)[O-])ccc3Cl)cc2)nc1 [Example 105, N-[4-[(5-Methoxypyrimidin-2-yl)aminosulfonyl]phenyl]-(2-chloro-5-nitrophenyl)carboxamide] | – | 89.4% | – |
| O=C(Nc1ccc(S(=O)(=O)Nc2ccnn2-c2ccccc2)cc1)c1cc([N+](=O)[O-])ccc1Cl [Example 108, N-[4-[(2-Phenyl-(2H)-pyrazol-3-yl)aminosulfonyl]phenyl]-(2-chloro-5-nitrophenyl)carboxamide] | – | 87.7% | – |
| O=C(Nc1nnc(-c2ccccc2)s1)c1cc([N+](=O)[O-])ccc1Cl [Example 110, N-(5-Phenyl-[1,3,4]thiadiazol-2-yl)-(2-chloro-5—nitrophenyl)carboxamide] | – | 84.6% | – |
| O=C(Nc1nc(-c2ccc(F)c(F)c2)cs1)c1cc([N+](=O)[O-])ccc1Cl [Example 111, N-[4-(3,4-Difluorophenyl)thiazol-2-yl]-(2-chloro-5-nitrophenyl)carboxamide] | – | 61.2% | – |
| O=C(Nc1ccc(NC(=O)c2cc([N+](=O)[O-])ccc2Cl)cc1)c1ccncc1 [Example 125, N-[4-(Pyridin-4-ylcarbonylamino)phenyl]-(2-chloro-5-nitrophenyl)carboxamide] | 132% | – | – |
| CCCCCCN(CCCCCC)c1ccc(NC(=O)c2cc([N+](=O)[O-])ccc2Cl)cc1 [Example 138, N-[4-(N,N-di-n-Hexylamino)phenyl]-(2-chloro-5-nitrophenyl)carboxamide] | 126% | – | – |
| CC(C)(C)c1cc(C(=O)Nc2ccc(NC(=O)c3cc([N+](=O)[O-])ccc3Cl)cc2)cc(C(C)(C)C)c1O [Example 157, N-[4-[(3,5-di-tert-Butyl-4-hydroxybenzoyl)amino]phenyl]-(2-chloro-5-nitrophenyl)carboxamide] | 116% | – | – |
| CN(C)c1cccc(NC(=O)c2cc([N+](=O)[O-])ccc2Cl)c1 [Example 176, N-(3-Dimethylamino)phenyl-(2-chloro-5-nitrophenyl)carboxamide] | 118% | – | – |
| O=C(Nc1ccc(S(=O)(=O)Nc2cccnc2)cc1)c1cc([N+](=O)[O-])ccc1Cl [Example 178] | – | 66.2% | – |
| O=C(Nc1ccc(S(=O)(=O)Nc2ccc(N3CCOCC3)cc2)cc1)c1cc([N+](=O)[O-])ccc1Cl [Example 179, N-[4-[4-(Morpholin-4-yl)phenyl]aminosulfonyl]phenyl-(2-chloro-5-nitrophenyl)carboxamide] | 128% | – | – |
| CCCNc1ccc(NC(=O)c2cc([N+](=O)[O-])ccc2Cl)cc1 [Example 181, N-[4-(N-Propylamino)phenyl]-(2-chloro-5-nitrophenyl)carboxamide] | 128% | – | – |
| CCCN(CC)c1ccc(NC(=O)c2cc([N+](=O)[O-])ccc2Cl)cc1 [Example 189, N-[4-(N-Ethyl-N-propylamino)phenyl]-(2-chloro-5-nitrophenyl)carboxamide] | 133% | – | – |
